# Where no end group is shown, it is not given here.
# Key:
# [1] = test system: CD11b+ macrophage isolated from peripheral blood; test: IL-6 and IL-10 expression (ELISA) in CD11b+ macrophages treated with SP; assay type: cell-based, C57b1/6 mice; conditions: CD11b+ macrophage in macrophage activation media; SP as Example 1-(1); 4.5, 10, 24 hours; FIG. 3
# Experimental: [The procedure below names another cell line; the source says it served here with some conditions changed.] Peripheral blood was collected from C57b1/6 mice (8 weeks, sex; male, n=5, Average Weight; 20 g), diluted doubly with PBS, carefully placed on Ficoll in a tube, and then centrifuged at 2200 rpm for 20 minutes. By centrifuging, from the bottom, an erythrocyte layer, a ficoll layer, a mononuclear cell layer, and a plasma layer were obtained in order. The mononuclear cell layer and plasma layer were isolated, excluding the erythrocyte layer and ficoll layer, and then washed one time with PBS. Then, the number of cells was counted; the cells with a concentration of 1×10^5/0.2 ml were seeded onto T-cell activation media (lymphocyte activation media; RPMI, 10% FBS, 100 μM 2-mercaptoetanol, 20 μg/ml ConA); then the cells were cultured at an incubator of 37° C.; and then culture supernatant was taken at 4.5 hours, 10 hours, and 24 hours. For SP-treated group, 10 nmole/kg of SP dissolved in a physiological saline was treated to T-cell activation media. […] After 30 minutes, 100 μl of stop codon was treated to stop the reaction; the optical density was measured at 450 nm; the amounts of cytokines were converted based on a protein conversion formula by a standard sample; and then the results were shown in FIG. 1. […]
# [2] = Streptozotocin-induced Type I diabetes: blood glucose level and weight; assay type: in vivo, ICR mouse; conditions: for blood glucose level: FIG. 13
# Experimental: Specifically, 5 nmole/kg of SP dissolved in a physiological saline was injected to a tail vein of ICR mouse (8 weeks, sex; male, n=10, Average Weight: 30 g), and then STZ (Sigma, USA) was intraabdominally injected. Streptozotocin was daily injected intraabdominally for two days, and SP was intravenously injected at the same concentration for five days. Only streptozotocin was injected for the control; after one week, blood glucose level was checked to confirm induction of diabetes; then SP was intravenously injected for five days from seven days after STZ injection.
# Blood glucose level and weight were investigated. One drop of blood was taken from a tail vein of mouse by one time per 2-3 days, and a blood glucose level was measured by using a glucometer (Roche, Switzerland) and a weight was measured.
# leukocytes in blood = test: Corneal epithelial burn model: number of leukocytes in blood; assay type: in vivo, New Zealand white rabbit; conditions: rabbit, alkali burn of cornea; 5 nmole/kg SP i.v. twice; after three days after burning; vs continuously increased without SP; FIG. 6
# Experimental: Ketalar (50 mg/ml, Yuhan Corporation) and Rompun (23.32 mg (Xylazine hydrochloride)/ml, Bayer Korea Corporation) were mixed in a rate of 2:1, and then total 900 μl (Ketalar 600 μl: Rompun 300 μl) was injected into muscles of rabbits (New Zealand white rabbit, Male, 2.5 kg, n=4). After the intramuscular injection, 300 μl (Ketalar 200 μl: Rompun 100 μl) of the same anesthetic drug was injected in the rabbit's ear vein.
# A 6 mm paper disc fully wetted by 1N NaOH was contacted to a limbus part of rabbit's cornea for 10 seconds. After alkali burning, corneal epithelium was removed in a size of the paper disc. The rabbit's eyes were quickly washed with a physiological saline immediately after alkali burning. At the same time, 5 nmole/kg of SP dissolved in a physiological saline was intravenously injected, and then after 24 hours, was injected once more (immediately after burning and at 24 hours after burning). For the control, PBS with the same volume was injected (injection Volume: 1 ml). […]
# 2 ml of the whole 10 ml was used for counting blood cells and the number of leukocytes was analyzed in Neodin (Company for analysis of blood cells). Concretely, 2 ml of blood was added to a vial including EDTA; it was well mixed; then the whole leukocyte level was analyzed in an automatic analyzer (SYSMEX XE-2100 automatic analyzer from SYSMEX Corporation [Japan]); and then the results were shown in FIG. 6.
substance,measurement,setting,value
"Substance-P (RPKPQQFFGLM; not fully specified; ends and bridges not checked; UniProt P20366 58-68, looked up)",expression level of IL-6 in culture supernatant,[1],no difference
same,expression of IL-10 in culture supernatant,[1],increased
same,blood glucose level,[2]; STZ/SP-injected group: 5 nmole/kg SP i.v. for five days at the same time as STZ,maintained in normal state
same,weight,"[2]; STZ/SP-injected group: 5 nmole/kg SP i.v. for five days at the same time as STZ, FIG. 14",maintained in normal state
same,blood glucose level,"[2]; STZ/after SP-injected group: SP i.v. for five days from seven days after STZ, after inducing diabetes",decreased in the short run
same,number of leukocytes in blood (increase % based on Day 0-level),leukocytes in blood,sharply decreased

# — patent US8575089B2, “Composition for preventing or treating inflammation” (University-Industry Cooperation Group of Kyung Hee, priority 2009, dated 2013)
